Test results as given in patent US10961238B2, “Modulators of hedgehog (Hh) signaling pathway” (E-THERAPEUTICS PLC, priority 2016, dated 2021).

Key:
SMO = target: T1, SMO (Homo sapiens, UniProt Q99835); experiment: Smoothened (SMO) binding fluorescence polarisation assay (BODIPY-cyclopamine competition); conditions: SMO binding FP assay versus C3H10T1/2 cellular assay
T1 construct: expressed in transfected cells; host or cells: HEK293
In short: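 Competition fluorescence polarisation with 3 nM BODIPY-cyclopamine on membranes from SMO-overexpressing HEK293 cells, 25 mM HEPES pH7.4 buffer, 0.3% DMSO. Seven-point compound dilutions; read after 24 hours at room temperature in the dark.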

[1] = tested on: SMO L416F mutant cell line; experiment: C3H10T1/2 cell differentiation assay in SMO L416F mutant cell line versus wild type; type: cell-based, mouse; conditions: SMO L416F mutant cell line compared to the wild type, C3H10T1/2 cell differentiation assay
Excerpt: FIG. 1 is a graph of the percent inhibition of C3H10T1/2 cell differentiation of vismodegib compared to compound of the invention (compound number 174), in wild type versus SMO L416F mutant cell line.
Loss of Potency in C3H10T1/2 Cell Differentiation Assay Associated with Presence of SMO L416F Mutation.
Table 3 below details the number of fold reduction in potency of a range of compounds of the invention when applied to the SMO L416F mutant cell line compared to the wild type. SMO mutation has been described in the literature (Pricl, Sabrina, et al.) as a key mutation causative of vismodegib resistance in the clinic by interfering with drug binding.

C3H10T1/2 cells = experiment: C3H assay: differentiation of C3H10T1/2 cells by mSHH, measurement of alkaline phosphatase; type: cell-based, mouse; conditions: Mus musculus, C3H 10T1/2; C3H10T1/2 cells stimulated with mSHH for 72 hours; alkaline phosphatase activity; read-out: IC50 Ranges

T1 sequence (Q99835 28-787): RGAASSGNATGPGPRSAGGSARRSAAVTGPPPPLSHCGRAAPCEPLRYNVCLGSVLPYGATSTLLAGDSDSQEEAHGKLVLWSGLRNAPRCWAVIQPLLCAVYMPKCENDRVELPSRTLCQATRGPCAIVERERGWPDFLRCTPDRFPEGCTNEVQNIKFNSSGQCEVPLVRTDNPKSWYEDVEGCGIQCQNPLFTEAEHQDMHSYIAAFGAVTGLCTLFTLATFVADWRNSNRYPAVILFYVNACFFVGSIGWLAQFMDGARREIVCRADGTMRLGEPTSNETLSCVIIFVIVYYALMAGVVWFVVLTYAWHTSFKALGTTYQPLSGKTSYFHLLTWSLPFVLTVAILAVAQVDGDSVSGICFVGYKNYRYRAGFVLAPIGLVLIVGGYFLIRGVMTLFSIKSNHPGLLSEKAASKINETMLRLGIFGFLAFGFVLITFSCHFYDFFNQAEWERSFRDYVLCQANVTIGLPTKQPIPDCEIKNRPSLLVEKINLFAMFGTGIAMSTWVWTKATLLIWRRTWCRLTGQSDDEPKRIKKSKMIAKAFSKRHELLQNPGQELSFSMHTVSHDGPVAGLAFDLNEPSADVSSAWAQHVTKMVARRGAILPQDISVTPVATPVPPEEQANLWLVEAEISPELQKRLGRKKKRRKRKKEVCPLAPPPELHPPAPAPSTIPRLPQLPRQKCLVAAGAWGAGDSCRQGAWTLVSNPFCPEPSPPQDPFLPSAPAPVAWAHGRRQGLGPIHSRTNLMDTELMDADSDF

CC(C)(C)NC(=O)N1CCC(S(=O)(=O)N2CCC(c3c[nH]c4ncccc34)CC2)CC1 [Compound 107, N-tert-butyl-4-[4-(1H-pyrrolo[2,3-b]pyridin-3-yl)piperidin-1-yl]sulfonylpiper-idine-1-carboxamide]
Ratio of potency in SMO binding assay to potency in C3H10T1/2 cellular assay (SMO): 20 | Fold reduction in potency in SMO L416F mutant cell line [1]: 56 | IC50 (C3H10T1/2 cells): 0.01 to 0.1 µM
